# Experimental data from patent US20210068388A1, “A MULTIPURPOSE POTENTIATOR COMPOSITION AND THE METHODS THEREOF” (priority 2017, published 2021).
# Read-outs that look alike come from different tables or passages of the source.
# Legend:
# [1] = tested on: African green monkey kidney cells (Vero cells); experiment: In-vitro cytotoxicity on Vero cells
# Procedure: (§1) In-vitro cytotoxicity of the composition of was carried out on African green monkey kidney cells (Vero cells).
# [2] = tested on: African green monkey kidney cells (Vero cells)
# Procedure: as §1
SMILES,toxic level [1],Non-toxic level (%) ([1]; up to total amount of the composition),Non-toxic level (%) [2],toxic level [2]
"[Cl-].[Na+] [Control-I, Sodium chloride]",0.50%,0.50%,,
"[Na+].[OH-] [Control-II, Sodium hydroxide]",,,0.06%,0.06%
